Measured values published in PMC4858680, “A platinum-based hybrid drug design approach to circumvent acquired resistance to molecular targeted tyrosine kinase inhibitors” (Scientific Reports, 2016).

Key:
EPHB2 = target: T1, EPHB2 (Homo sapiens, UniProt P29323); assay: biochemical; conditions: read-out: Percent control
T1 sequence (P29323 19-1055): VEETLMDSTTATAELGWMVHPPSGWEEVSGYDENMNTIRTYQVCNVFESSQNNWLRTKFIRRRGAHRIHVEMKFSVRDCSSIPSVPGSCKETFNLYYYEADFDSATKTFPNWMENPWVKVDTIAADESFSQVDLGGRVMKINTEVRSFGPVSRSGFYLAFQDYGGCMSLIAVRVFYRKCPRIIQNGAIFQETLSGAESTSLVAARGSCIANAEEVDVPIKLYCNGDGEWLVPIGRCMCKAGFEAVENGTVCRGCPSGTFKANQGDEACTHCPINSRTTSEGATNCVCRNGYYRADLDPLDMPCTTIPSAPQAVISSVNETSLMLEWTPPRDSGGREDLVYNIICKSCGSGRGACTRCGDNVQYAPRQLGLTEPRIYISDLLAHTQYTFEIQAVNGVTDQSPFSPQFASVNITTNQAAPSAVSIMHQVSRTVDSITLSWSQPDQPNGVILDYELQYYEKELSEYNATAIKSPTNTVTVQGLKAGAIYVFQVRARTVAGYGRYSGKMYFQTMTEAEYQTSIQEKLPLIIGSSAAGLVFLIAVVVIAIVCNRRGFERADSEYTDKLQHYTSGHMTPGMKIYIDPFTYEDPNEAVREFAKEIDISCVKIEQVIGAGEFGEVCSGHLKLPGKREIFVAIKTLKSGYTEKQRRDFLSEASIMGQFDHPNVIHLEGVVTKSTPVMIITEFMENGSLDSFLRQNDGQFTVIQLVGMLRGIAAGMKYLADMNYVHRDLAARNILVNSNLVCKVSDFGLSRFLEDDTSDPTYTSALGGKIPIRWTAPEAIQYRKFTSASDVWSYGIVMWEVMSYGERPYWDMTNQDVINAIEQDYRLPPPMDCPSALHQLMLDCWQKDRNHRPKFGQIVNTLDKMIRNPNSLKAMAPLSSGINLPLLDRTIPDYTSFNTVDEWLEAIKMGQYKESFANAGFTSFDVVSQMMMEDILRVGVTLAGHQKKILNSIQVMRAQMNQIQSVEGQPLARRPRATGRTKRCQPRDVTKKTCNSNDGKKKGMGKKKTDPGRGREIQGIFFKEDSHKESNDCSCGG

FGFR2 = FGFR2 (Homo sapiens, UniProt P21802); assay: biochemical; conditions: read-out: Percent control
FLT3 = target: T2, FLT3 (Homo sapiens, UniProt P36888); assay: biochemical; conditions: read-out: Percent control
T2 sequence (P36888 27-993): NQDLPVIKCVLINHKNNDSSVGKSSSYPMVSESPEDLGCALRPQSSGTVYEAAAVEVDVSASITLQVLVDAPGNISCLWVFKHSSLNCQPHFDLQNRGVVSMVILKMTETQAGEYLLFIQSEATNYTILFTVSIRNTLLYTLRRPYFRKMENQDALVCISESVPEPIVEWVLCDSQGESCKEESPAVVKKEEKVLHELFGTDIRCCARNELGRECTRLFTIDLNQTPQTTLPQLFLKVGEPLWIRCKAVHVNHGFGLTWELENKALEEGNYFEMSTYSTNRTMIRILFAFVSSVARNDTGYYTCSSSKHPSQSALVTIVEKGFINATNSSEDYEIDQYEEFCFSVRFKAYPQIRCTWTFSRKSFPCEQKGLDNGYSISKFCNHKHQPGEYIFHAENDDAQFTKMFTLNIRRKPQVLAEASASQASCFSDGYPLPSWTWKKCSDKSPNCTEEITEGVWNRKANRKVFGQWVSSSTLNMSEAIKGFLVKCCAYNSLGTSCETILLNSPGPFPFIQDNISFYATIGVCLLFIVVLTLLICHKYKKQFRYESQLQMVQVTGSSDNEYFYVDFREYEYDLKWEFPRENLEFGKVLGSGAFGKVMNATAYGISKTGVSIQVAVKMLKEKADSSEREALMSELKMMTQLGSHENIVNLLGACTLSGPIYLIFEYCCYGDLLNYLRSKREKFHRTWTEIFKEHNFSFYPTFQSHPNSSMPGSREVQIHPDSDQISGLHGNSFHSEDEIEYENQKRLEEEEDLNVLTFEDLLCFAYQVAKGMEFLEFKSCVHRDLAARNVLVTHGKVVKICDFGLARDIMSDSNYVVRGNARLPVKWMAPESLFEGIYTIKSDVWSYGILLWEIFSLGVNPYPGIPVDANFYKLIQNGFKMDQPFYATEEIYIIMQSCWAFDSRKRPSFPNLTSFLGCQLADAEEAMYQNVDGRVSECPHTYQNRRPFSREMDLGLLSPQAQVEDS

FLT4 = FLT4 (Homo sapiens, UniProt P35916); assay: biochemical; conditions: read-out: Percent control
FYN = FYN (Homo sapiens, UniProt P06241); assay: biochemical; conditions: read-out: Percent control
KIT(V559D) = KIT(V559D) (Homo sapiens, UniProt P10721, V559D); assay: biochemical; conditions: read-out: Percent control
LTK = LTK (Homo sapiens, UniProt P29376); assay: biochemical; conditions: read-out: Percent control
ROS1 = ROS1 (Homo sapiens, UniProt P08922); assay: biochemical; conditions: read-out: Percent control
TRKC = TRKC (Homo sapiens, UniProt Q16288); assay: biochemical; conditions: read-out: Percent control
MET = MET (Homo sapiens, UniProt P08581); conditions: 10 μM
PDGFRB = PDGFRB (Homo sapiens, UniProt P09619); conditions: 10 μM
SRC = SRC (Homo sapiens, UniProt P12931); conditions: 10 μM

Chain of FLT4 (P35916 25-1363): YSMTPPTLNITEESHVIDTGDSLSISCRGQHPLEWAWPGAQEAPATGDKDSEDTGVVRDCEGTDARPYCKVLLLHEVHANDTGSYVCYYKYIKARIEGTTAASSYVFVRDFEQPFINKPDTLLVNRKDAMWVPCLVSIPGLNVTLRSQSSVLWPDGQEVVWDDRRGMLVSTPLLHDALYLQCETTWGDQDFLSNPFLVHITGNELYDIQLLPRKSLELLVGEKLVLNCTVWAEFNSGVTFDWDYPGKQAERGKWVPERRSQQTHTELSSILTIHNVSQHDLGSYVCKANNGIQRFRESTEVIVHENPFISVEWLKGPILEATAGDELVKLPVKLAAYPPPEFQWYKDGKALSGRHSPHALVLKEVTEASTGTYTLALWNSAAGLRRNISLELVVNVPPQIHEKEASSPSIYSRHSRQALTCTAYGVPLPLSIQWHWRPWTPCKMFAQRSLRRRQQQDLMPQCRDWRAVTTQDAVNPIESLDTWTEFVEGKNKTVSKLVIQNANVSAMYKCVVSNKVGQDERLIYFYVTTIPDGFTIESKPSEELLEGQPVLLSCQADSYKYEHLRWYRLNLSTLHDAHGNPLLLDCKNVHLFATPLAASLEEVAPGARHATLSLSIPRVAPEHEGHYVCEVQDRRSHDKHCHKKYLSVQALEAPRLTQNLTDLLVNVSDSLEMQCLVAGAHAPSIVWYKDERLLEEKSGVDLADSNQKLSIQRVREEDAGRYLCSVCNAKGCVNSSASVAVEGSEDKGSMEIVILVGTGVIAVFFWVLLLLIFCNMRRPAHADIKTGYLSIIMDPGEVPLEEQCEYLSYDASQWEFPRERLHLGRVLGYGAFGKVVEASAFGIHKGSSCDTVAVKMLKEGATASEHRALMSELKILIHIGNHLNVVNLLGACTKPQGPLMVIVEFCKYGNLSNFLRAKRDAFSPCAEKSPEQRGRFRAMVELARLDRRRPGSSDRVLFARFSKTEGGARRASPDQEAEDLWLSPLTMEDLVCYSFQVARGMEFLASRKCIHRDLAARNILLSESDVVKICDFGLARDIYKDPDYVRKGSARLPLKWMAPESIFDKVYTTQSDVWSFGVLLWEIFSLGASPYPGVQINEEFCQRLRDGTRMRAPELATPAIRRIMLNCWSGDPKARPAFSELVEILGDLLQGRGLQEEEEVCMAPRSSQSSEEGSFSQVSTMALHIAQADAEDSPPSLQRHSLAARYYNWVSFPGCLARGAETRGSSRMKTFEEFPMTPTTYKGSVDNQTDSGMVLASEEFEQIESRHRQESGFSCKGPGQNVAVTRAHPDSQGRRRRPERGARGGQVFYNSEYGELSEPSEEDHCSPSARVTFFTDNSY
Chain of MET (P08581 25-1390): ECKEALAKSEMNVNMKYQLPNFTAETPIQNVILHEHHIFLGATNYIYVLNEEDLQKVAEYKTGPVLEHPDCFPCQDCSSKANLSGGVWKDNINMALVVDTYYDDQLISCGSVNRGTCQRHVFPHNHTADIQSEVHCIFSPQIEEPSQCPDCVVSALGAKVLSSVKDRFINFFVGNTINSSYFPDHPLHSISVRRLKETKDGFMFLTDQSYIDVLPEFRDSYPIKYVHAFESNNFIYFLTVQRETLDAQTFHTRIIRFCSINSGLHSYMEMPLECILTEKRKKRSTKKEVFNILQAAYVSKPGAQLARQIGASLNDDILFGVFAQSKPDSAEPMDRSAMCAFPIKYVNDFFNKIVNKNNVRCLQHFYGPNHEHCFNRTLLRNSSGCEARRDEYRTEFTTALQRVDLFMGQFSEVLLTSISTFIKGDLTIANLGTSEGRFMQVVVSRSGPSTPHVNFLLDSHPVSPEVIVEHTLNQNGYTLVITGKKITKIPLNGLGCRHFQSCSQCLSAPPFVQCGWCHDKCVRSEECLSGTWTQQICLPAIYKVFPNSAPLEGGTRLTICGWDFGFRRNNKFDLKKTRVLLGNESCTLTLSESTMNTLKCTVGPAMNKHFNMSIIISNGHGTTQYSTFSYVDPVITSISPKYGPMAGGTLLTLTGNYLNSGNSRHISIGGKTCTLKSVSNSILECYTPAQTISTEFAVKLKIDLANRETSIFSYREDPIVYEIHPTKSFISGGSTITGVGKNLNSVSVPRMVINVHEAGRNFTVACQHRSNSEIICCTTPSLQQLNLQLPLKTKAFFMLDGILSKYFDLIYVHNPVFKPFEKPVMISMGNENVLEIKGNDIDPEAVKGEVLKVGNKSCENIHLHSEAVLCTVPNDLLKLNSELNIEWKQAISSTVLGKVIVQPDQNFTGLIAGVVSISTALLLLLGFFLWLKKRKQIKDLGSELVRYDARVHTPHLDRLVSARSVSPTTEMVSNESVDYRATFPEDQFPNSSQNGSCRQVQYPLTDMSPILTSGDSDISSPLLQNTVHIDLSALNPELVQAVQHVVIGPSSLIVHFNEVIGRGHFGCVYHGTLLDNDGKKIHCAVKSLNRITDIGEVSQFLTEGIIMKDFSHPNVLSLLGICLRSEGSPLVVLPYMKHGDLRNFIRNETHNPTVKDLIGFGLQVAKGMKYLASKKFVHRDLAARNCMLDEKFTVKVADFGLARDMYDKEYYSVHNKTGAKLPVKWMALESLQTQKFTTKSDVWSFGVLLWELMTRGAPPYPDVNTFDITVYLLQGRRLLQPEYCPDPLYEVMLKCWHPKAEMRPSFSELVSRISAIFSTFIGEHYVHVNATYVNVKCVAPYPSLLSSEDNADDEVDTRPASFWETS
Chain of KIT(V559D) (P10721 26-976 V559D): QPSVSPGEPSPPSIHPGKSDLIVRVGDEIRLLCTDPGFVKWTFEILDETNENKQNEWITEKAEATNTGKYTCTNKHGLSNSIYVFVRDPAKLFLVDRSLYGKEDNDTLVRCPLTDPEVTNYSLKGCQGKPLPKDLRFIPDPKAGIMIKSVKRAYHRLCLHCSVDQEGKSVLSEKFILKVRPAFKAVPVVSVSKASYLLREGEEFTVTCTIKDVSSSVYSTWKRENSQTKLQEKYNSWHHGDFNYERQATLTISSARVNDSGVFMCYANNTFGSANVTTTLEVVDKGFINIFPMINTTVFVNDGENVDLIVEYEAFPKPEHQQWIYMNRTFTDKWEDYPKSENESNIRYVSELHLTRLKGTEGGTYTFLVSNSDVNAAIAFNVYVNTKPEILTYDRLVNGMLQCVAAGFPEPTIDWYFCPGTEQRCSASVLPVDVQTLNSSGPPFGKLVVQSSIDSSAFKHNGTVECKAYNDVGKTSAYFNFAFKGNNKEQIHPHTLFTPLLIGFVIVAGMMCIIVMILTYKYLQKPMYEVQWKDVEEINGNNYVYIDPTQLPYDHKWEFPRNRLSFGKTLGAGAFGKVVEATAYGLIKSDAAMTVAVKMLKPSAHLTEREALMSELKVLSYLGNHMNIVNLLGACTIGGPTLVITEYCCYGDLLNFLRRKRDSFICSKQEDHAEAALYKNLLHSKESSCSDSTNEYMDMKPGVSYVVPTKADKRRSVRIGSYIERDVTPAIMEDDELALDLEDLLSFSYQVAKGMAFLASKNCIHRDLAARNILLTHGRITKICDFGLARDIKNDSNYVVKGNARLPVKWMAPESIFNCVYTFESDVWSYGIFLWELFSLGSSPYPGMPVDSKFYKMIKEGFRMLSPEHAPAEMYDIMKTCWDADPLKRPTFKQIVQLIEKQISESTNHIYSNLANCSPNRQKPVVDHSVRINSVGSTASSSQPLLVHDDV
Chain of LTK (P29376 17-864): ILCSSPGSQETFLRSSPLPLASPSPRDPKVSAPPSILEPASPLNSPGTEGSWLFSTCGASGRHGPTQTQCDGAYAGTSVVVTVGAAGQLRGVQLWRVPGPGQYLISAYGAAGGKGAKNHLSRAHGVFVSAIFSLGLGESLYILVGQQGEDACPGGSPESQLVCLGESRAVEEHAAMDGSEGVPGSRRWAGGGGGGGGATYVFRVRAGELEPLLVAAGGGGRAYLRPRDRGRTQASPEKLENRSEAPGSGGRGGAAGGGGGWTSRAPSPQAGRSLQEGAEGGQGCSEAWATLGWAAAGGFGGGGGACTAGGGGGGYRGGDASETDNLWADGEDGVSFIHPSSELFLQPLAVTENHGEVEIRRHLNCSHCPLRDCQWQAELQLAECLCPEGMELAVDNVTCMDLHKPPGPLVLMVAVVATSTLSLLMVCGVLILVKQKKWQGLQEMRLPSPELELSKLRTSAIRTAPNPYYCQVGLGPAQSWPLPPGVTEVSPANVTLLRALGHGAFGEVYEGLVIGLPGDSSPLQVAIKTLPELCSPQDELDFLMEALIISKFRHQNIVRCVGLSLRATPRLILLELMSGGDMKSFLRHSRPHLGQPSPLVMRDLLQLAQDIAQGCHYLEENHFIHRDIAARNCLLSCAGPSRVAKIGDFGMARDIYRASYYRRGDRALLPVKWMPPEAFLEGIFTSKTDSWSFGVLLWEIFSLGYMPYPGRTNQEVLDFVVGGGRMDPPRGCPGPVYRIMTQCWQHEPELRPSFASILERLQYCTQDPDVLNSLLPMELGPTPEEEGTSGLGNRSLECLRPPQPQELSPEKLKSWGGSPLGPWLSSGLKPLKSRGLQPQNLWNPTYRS
Chain of FYN (P06241 whole entry): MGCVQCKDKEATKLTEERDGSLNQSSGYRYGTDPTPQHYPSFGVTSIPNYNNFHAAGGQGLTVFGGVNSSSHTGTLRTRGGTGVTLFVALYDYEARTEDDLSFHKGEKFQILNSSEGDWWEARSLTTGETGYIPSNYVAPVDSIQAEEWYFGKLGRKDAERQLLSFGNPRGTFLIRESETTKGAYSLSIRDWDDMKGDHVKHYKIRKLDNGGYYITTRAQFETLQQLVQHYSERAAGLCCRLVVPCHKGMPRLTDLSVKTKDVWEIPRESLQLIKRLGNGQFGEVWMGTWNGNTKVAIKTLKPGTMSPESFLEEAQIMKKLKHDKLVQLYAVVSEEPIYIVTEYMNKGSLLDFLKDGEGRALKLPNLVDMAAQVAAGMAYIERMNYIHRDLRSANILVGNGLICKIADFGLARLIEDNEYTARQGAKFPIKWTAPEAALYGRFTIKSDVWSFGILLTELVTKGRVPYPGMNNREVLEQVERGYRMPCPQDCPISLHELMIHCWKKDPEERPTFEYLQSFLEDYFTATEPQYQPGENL

Row | Compound | remaining activity at 10 µM (EPHB2) [%] | remaining activity at 10 µM (FGFR2) [%] | remaining activity at 10 µM (FLT3) [%] | remaining activity at 10 µM (FLT4) [%] | remaining activity at 10 µM (FYN) [%] | remaining activity at 10 µM (KIT(V559D)) [%] | remaining activity at 10 µM (LTK) [%] | remaining activity at 10 µM (ROS1) [%] | remaining activity at 10 µM (TRKC) [%] | Percent control (MET) [%] | Percent control (PDGFRB) [%] | Percent control (SRC) [%]
1 | C#Cc1cccc(Nc2ncnc3cc(OCCOC)c(OCCOC)cc23)c1 [Erlotinib] | 100 | 100 | 10.7 | 17.4 | 100 | 23.7 | 8.2 | 100 | 100 | – | – | –
2 | Cc1ccc(NC(=O)c2ccc(CN3CCN(C)CC3)cc2)cc1Nc1nccc(-c2cccnc2)[n+]1[Pt-2]1([Cl])[NH2+]C2CCCCC2[NH2+]1 (stereo not shown) [1b, oxaliplatin-imatinib] | – | – | – | – | – | – | – | – | – | 88 | 0.1 | –
3 | Cc1ccc(NC(=O)c2ccc(CN3CCN(C)CC3)cc2)cc1Nc1nccc(-c2cccnc2)n1 [Imatinib, reference compound] | 100 | – | – | – | – | 0.1 | – | – | – | – | – | –
4 | COc1cc2c(Nc3ccc(Br)cc3F)ncnc2cc1OCC1CCN(C)CC1 [Vandetanib, reference compound] | 4.2 | 9.9 | 7.8 | 9.9 | 3.5 | – | 5.2 | 100 | 100 | – | – | –
5 | COc1cc2c(Nc3ccc(Br)cc3F)[n+]([Pt-2]3([Cl])[NH2+]C4CCCCC4[NH2+]3)cnc2cc1OCC1CCN(C)CC1 (stereo not shown) [3b, oxaliplatin-vandetanib] | – | – | – | – | – | – | – | – | – | – | – | 0.5
6 | C#Cc1cccc(Nc2c3cc(OCCOC)c(OCCOC)cc3nc[n+]2[Pt@SP2-2]([NH3+])([NH3+])[Cl])c1 [2a, cisplatin-erlotinib] | – | – | – | – | – | – | – | – | – | 63 | 85 | 66
